Drawing on patent publication US12577255B2, “MDM2-based modulators of proteolysis and associated methods of use” (Arvinas Operations, Inc., priority 2015, dated 2026), this text covers p53 level increase and AR degradation (%) for eleven molecules.

The test system of one experiment is p53. Nature of the experiment: Western blot of HCT116 cells, p53 level. It counts as cell-based, human. The note with it: Western blot (FIG. 2, FIG. 3). In general terms: A western blot detects proteins with antibodies after separation by electrophoresis.
Regarding `COc1cc(C(=O)NCCOCCOCCOCCOCC(=O)N[C@H](C(=O)N2C[C@H](O)C[C@H]2C(=O)NCc2ccc(-c3scnc3C)cc2)C(C)(C)C)ccc1NC(=O)[C@@H]1N[C@@H](CC(C)(C)C)[C@](C#N)(c2ccc(Cl)cc2F)[C@H]1c1cccc(Cl)c1F` (single isomer, unassigned) [Compound A1896], the p53 level increase result is reported as “dose dependent p53 level increase”.
On the same count and under the same terms, then `COc1cc(C(=O)NCCOCCOCCOCCOCC(=O)N[C@H](C(=O)N2C[C@H](O)C[C@H]2C(=O)NCc2ccc(-c3scnc3C)cc2)C(C)(C)C)ccc1NC(=O)C1NC(CC(C)(C)C)C(C#N)(c2ccc(Cl)cc2F)C1c1cccc(Cl)c1F` (mixture of isomers) [Compound A1895, 3-(3-chloro-2-fluorophenyl)-4-(4-chloro-2-fluorophenyl)-4-cyano-5-(2,2-dimethylpropyl)-N-{4-[(1-{[(2S)-1-[(2S,4R)-4-hydroxy-2-({[4-(4-methyl-1,3-thiazol-5-yl)phenyl]methyl}carbamoyl)pyrrolidin-1-yl]-3,3-dimethyl-1-oxobutan-2-yl]carbamoyl}-2,5,8,11-tetraoxatridecan-13-yl)carbamoyl]-2-methoxyphenyl}pyrrolidine-2-carboxamide], with “dose dependent p53 level increase”.

For the next experiment, the target named is T1, androgen receptor (AR) (Homo sapiens, UniProt P10275).
T1 construct: detects endogenous levels of total androgen receptor protein; host or cells: VCaP
T1 sequence (P10275 1-920): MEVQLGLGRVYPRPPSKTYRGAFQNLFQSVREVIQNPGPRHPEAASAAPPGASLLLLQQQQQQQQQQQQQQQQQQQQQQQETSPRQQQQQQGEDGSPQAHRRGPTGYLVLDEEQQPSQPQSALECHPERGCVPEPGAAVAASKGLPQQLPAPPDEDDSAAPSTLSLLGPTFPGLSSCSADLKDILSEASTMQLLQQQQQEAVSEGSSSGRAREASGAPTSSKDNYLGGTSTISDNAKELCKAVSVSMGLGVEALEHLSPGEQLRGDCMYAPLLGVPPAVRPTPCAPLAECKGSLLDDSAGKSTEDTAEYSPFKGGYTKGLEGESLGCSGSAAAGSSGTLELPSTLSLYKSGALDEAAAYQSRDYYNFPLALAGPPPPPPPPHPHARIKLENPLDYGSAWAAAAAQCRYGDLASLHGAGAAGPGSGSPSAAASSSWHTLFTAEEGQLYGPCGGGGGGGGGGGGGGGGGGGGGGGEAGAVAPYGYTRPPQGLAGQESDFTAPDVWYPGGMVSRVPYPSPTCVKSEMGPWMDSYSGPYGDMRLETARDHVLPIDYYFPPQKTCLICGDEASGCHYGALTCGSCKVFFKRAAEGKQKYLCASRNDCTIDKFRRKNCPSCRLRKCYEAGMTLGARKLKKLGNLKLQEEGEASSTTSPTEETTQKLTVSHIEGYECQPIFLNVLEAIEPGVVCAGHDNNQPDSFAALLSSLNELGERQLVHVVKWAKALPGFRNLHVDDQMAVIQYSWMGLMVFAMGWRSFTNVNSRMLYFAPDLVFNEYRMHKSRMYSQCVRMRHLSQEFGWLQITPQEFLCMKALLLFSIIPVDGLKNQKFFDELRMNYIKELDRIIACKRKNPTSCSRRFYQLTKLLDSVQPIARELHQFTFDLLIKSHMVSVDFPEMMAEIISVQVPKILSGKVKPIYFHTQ
Nature of the experiment: AR ELISA assay (degradation). It counts as cell-based. To be noted: VCaP cells, 16 h. The protocol:
The following biological assays were performed to evaluate the protein degradation in various cell types using representative compounds disclosed. The degradation of the following proteins were evaluated: bromodomain-containing protein 4 (BRD4), androgen receptor (AR), c-Myc, c-Jun N-terminal kinases (JNK), and enhancer of zeste homolog 2 (EZH2).
VCaP cells were chased from ATCC and cultured in Dulbecco's Modified Eagle's Medium (ATCC), supplemented with 10% FBS (ATCC) and Penicillin/Streptomycin (Life Technologies). DMSO control and compound treatments (0.0001 μM to 1 μM) were performed in 96-well plates for 16 h. cells were harvested, and lysed with Cell Lysis Buffer (catalog #9803) (20 mM Tris-HCl, pH 7.5, 150 mM NaCl, 1 mM Na2EDTA, 1 mM EGTA, 1% Triton, 2.5 mM sodium pyrophosphate, 1 mM B-glycerophosphate, 1 mM Na3VO4, 1 μg/mL leupeptin. Lysates were clarified at 16,000 g for 10 minutes, and loaded into PathScan AR ELISA (Cell Signaling Catalog #12850). The PathScan Total Androgen Receptor Sanwich ELISA Kit is a solid phase sandwich enzyme-linked immunosorbent assay (ELISA) that detects endogenous levels of total androgen receptor protein. An Androgen Receptor Rabbit mAb has been coated onto the microwells. After incubation with cell lysates, androgen receptor protein is captured by the coated antibody. Following extensive washing, an Androgen receptor Mouse Detection mAbis added to detect the captured androgen receptor protein. Anti-mouse IgG, HRP-linked Antibody is then used to recognize the bound detection antibody. HRP substrate, TMB, is added to develop color. The magnitude of absorbance for the developed color is proportional to the quantity of total androgen receptor protein.
In turn, `CC(C)(C)C[C@@H]1NC(C(=O)NCCOCCOCCOc2ccc(C(=O)N[C@H]3C(C)(C)[C@H](Oc4ccc(C#N)c(Cl)c4)C3(C)C)cc2)[C@H](c2cccc(Cl)c2F)[C@@]1(C#N)c1ccc(Cl)cc1F` (stereo partly drawn) [Compound A1621, 3-(3-chloro-2-fluorophenyl)-4-(4-chloro-2-fluorophenyl)-4-cyano-5-(2,2-dimethylpropyl)-N-(2-{2-[2-(4-{[(1,3-trans)-3-(3-chloro-4-cyanophenoxy)-2,2,4,4-tetramethylcyclobutyl]carbamoyl}phenoxy)ethoxy]ethoxy}ethyl)pyrrolidine-2-carboxamide] came in with an AR degradation (%) at 1 µM of 0 to 25%.
On the same count and under the same terms, the value for `CC(C)(C)C[C@@H]1NC(C(=O)NCCOCCOCCOCCOCCOCCOc2ccc(C(=O)N[C@H]3C(C)(C)[C@H](Oc4ccc(C#N)c(Cl)c4)C3(C)C)cc2)[C@H](c2cccc(Cl)c2F)[C@@]1(C#N)c1ccc(Cl)cc1F` (stereo partly drawn) [Compound A1688, 3-(3-chloro-2-fluorophenyl)-4-(4-chloro-2-fluorophenyl)-4-cyano-5-(2,2-dimethylpropyl)-N-[1-(4-{[(1,3-trans)-3-(3-chloro-4-cyanophenoxy)-2,2,4,4-tetramethylcyclobutyl]-carbamoyl}phenyl)-1,4,7,10,13,16-hexaoxaoctadecan-18-yl]pyrrolidine-2-carboxamide] was 0 to 25%; that for `CC(C)(C)C[C@@H]1NC(C(=O)NCCOCCOc2ccc(C(=O)N[C@H]3C(C)(C)[C@H](Oc4ccc(C#N)c(Cl)c4)C3(C)C)cc2)[C@H](c2cccc(Cl)c2F)[C@@]1(C#N)c1ccc(Cl)cc1F` (stereo partly drawn) [Compound A1571, 3-(3-chloro-2-fluorophenyl)-4-(4-chloro-2-fluorophenyl)-4-cyano-5-(2,2-dimethylpropyl)-N-{2-[2-(4-{[(1,3-trans)-3-(3-chloro-4-cyanophenoxy)-2,2,4,4-tetramethylcyclobutyl]carbamoyl}phenoxy)ethoxy]ethyl}pyrrolidine-2-carboxamide] was 0 to 25%; that for `COc1cc(C(=O)NCCCOCCCCCOc2ccc(N3C(=S)N(c4ccc(C#N)c(C(F)(F)F)c4)C(=O)C3(C)C)cc2)ccc1NC(=O)C1NC(CC(C)(C)C)C(C#N)(c2ccc(Cl)cc2F)C1c1cccc(Cl)c1F` (centres unmarked) [Compound A2435, 3-(3-chloro-2-fluorophenyl)-4-(4-chloro-2-fluorophenyl)-4-cyano-N-{4-[(3-{[5-(4-{3-[4-cyano-3-(trifluoromethyl)phenyl]-5,5-dimethyl-4-oxo-2-sulfanylideneimidazolidin-1-yl}phenoxy)pentyl]oxy}propyl)carbamoyl]-2-methoxyphenyl}-5-(2,2-dimethylpropyl)pyrrolidine-2-carboxamide] was greater than 50%.
The same measure, in the same setting: then `CC(C)(C)C[C@H]1N[C@H](C(=O)NCCOCCOCCOCCOCCOc2ccc(C(=O)N[C@H]3C(C)(C)[C@H](Oc4ccc(C#N)c(Cl)c4)C3(C)C)cc2)[C@@H](c2cccc(Cl)c2F)[C@]1(C#N)c1ccc(Cl)cc1F` [Compound A1735, (2S,3R,4S,5R)-3-(3-chloro-2-fluorophenyl)-4-(4-chloro-2-fluorophenyl)-4-cyano-5-(2,2-dimethylpropyl)-N-[1-(4-{[(1r,3r)-3-(3-chloro-4-cyanophenoxy)-2,2,4,4-tetramethylcyclobutyl]carbamoyl]phenyl)-1,4,7,10,13-pentaoxapentadecan-15-yl]pyrrolidine-2-carboxamide], with 0 to 25%; and `CCOc1cc(C(C)(C)C)ccc1C1=NC(C)(c2ccc(Cl)cc2)C(C)(c2ccc(Cl)cc2)N1C(=O)N1CCN(CCOCCOCCOCCOCCOCCOc2ccc(N3C(=S)N(c4ccc(C#N)c(C(F)(F)F)c4)C(=O)C3(C)C)cc2)CC1` (centres unmarked) [Compound A702, 4-(3-{4-[(17-{4-[2-(4-tert-butyl-2-ethoxyphenyl)-4,5-bis(4-chlorophenyl)-4,5-dimethyl-4,5-dihydro-1H-imidazole-1-carbonyl]piperazin-1-yl}-3,6,9,12,15-pentaoxaheptadecan-1-yl)oxy]phenyl}-4,4-dimethyl-5-oxo-2-sulfanylideneimidazolidin-1-yl)-2-(trifluoromethyl)benzonitrile], with 25 to 50%.
Consider `CC(C)(C)C[C@@H]1NC(C(=O)NCCOCCOCCOCCOCCOc2ccc(C(=O)N[C@H]3C(C)(C)[C@H](Oc4ccc(C#N)c(Cl)c4)C3(C)C)cc2)[C@H](c2cccc(Cl)c2F)[C@@]1(C#N)c1ccc(Cl)cc1F` (stereo partly drawn) [Compound A1717, 3-(3-chloro-2-fluorophenyl)-4-(4-chloro-2-fluorophenyl)-4-cyano-5-(2,2-dimethylpropyl)-N-[1-(4-{[(1,3-trans)-3-(3-chloro-4-cyanophenoxy)-2,2,4,4-tetramethylcyclobutyl]carbamoyl}phenyl)-1,4,7,10,13-pentaoxapentadecan-15-yl]pyrrolidine-2-carboxamide], for which the AR degradation (%) at 1 µM lay within 25 to 50%.
Still for that read-out and setting: the value for `CCOc1cc(C(C)(C)C)ccc1C1=NC(C)(c2ccc(Cl)cc2)C(C)(c2ccc(Cl)cc2)N1C(=O)N1CCN(CCOCCOc2ccc(N3C(=S)N(c4ccc(C#N)c(C(F)(F)F)c4)C(=O)C3(C)C)cc2)CC1` (centres unmarked) [Compound A680, 4-(3-{4-[2-(2-{4-[2-(4-tert-butyl-2-ethoxyphenyl)-4,5-bis(4-chlorophenyl)-4,5-dimethyl-4,5-dihydro-1H-imidazole-1-carbonyl]piperazin-1-yl}ethoxy)ethoxy]phenyl}-4,4-dimethyl-5-oxo-2-sulfanylideneimidazolidin-1-yl)-2-(trifluoromethyl)benzonitrile] was 0 to 25%; that for `CC(C)(C)C[C@@H]1N[C@@H](C(=O)NCCOCCOCCOCCOCCOc2ccc(C(=O)N[C@H]3C(C)(C)[C@H](Oc4ccc(C#N)c(Cl)c4)C3(C)C)cc2)[C@H](c2cccc(Cl)c2F)[C@@]1(C#N)c1ccc(Cl)cc1F` [Compound A1720, (2R,3S,4R,5S)-3-(3-chloro-2-fluorophenyl)-4-(4-chloro-2-fluorophenyl)-4-cyano-5-(2,2-dimethylpropyl)-N-[1-(4-{[(1,3-trans)-3-(3-chloro-4-cyanophenoxy)-2,2,4,4-tetramethylcyclobutyl]carbamoyl}phenyl)-1,4,7,10,13-pentaoxapentadecan-15-yl]pyrrolidine-2-carboxamide] was 25 to 50%.
